Measured values published in patent publication US20150289512A1, “METHOD FOR PROMOTING PLANT GROWTH” (SUMITOMO CHEMICAL COMPANY, LIMITED, priority 2012, published 2015).

What was measured:
Type in all cases: in vivo
[1] = test system: Rice (variety: Nipponbare); test: Test Example 1: promotion of root growth by hydroponics of rice, 10 ppm; settings: hydroponic solution containing the test compound at 10 ppm, average of 4 or 5 individuals
In short: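 Surface-sterilised seeds germinated 3 days in the dark at 28° C in hydroponic solution with compound at 10 ppm, then grown 3 days hydroponically with compound at 10 ppm (26° C, 4,000 lux, 16 h day, 50% humidity). Seminal root length measured by image analysis, averaged over 4 or 5 plants per plot.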

[2] = test system: Corn seeds (variety: Pioneer 120 31P41); test: Test Example 14: growth promotion under low-temperature stress by soil drench treatment of corn; settings: soil drench 20 ml, low-temperature stress 5 days at 2.5° C., health score 0-5, average of 4 individuals
Method: Test for Evaluating Growth Promotion Under Low-Temperature Stress by Soil Drench Treatment of Corn
Corn seeds (variety: Pioneer 120 31P41) were seeded in a culture soil (Aisai) in a plastic pot (φ55 mm×height of 58 mm), and cultivated for 7 days at 20-25° C., an illuminance of about 5,000 lux, and a day length of 16 hours.
A DMSO solution, which contained one of the compounds 1 to 9, 16, 17, 20, 23, 24, 28 to 32, 34, 45, 48, 50, 82 and 85 of the present invention at a concentration of 1,000-fold concentration of each test concentration, was prepared, and then diluted with distilled water to obtain each test solution. After that, 20 ml of the obtained test solution was used to perform soil drench treatment on the foot of the test plants. The test plants were cultivated for 2 days under the conditions of a temperature of 27° C., a humidity of 40-80%, an illuminance of about 5,000 lux, and a day length of 16 hours. This was used as a test plot treated with the compound. A plot having undergone the soil drench treatment with 20 ml of a 0.1% DMSO aqueous solution instead of the above DMSO solution containing the compound was used as an untreated control plot.
The plants having undergone the soil drench treatment were cultivated for 5 days under the conditions of a temperature of 2.5° C., a humidity of 40-80%, an illuminance of about 5,000 lux, and a day length of 16 hours, thereby exposing to low-temperature stress. After the exposure to the low-temperature stress, the plants were cultivated for 4 days under the conditions of a temperature of 27° C., a humidity of 40-80%, an illuminance of about 5,000 lux, and a day length of 16 hours.
After the cultivation, the health of each plant was scored according to the following evaluation index.
5: 4 or more leaves in which ⅔ or more of the area was healthy
4: 3 leaves in which ⅔ or more of the area was healthy
3: 2 leaves in which ⅔ or more of the area was healthy
2: 1 leaf in which ⅔ or more of the area was healthy
1: No leaf in which ⅔ or more of the area was healthy
An average of the scores of the health of 4 individuals was determined.

Nicotiana benthamiana [3] = test: Test Example 5: growth promotion under low-temperature stress by hydroponics of Nicotiana benthamiana, 1 ppm; settings: 1 ppm in medium, low-temperature stress 7 days at 1.5±1.0° C., green leaf area 3 days later, equation (1)
Method: (§1) Test for Evaluating Growth Promotion Under Low-Temperature Stress by Hydroponics of Nicotiana benthamiana
A DMSO solution, which contained one of the compounds 2, 4, 5, 6, 11, 12, 17, 20, 21, 28, 30, 34, 36, 37, 51, 52, 53, 55, 56, 58, 59, 60, 64, 65, 66, 68, 69, 70, 74, 77, 82, 83, 84, 86 and 87 of the present invention at a concentration of 1,000 ppm, was prepared. The DMSO solution of the compound of the present invention was added at a volume ratio of 1/1,000 to the Murashige•Scoog medium of a ½-fold concentration (a medium containing 2.3 g of mixed salts for the Murashige•Scoog medium (manufactured by Wako Pure Chemical Industries, Ltd.), 200 mg of Myo-inositol (manufactured by Sigma-Aldrich Co. LLC.), 2 mg of nicotinic acid (manufactured by Wako Pure Chemical Industries, Ltd.), 2 mg of pyridoxine hydrochloride (manufactured by Wako Pure Chemical Industries, Ltd.), 20 mg of thiamine hydrochloride (manufactured by Wako Pure Chemical Industries, Ltd.), 20 g of sucrose (manufactured by Wako Pure Chemical Industries, Ltd.), and 1 g of MES (manufactured by DOJINDO LABORATORIES) per 1 L of water and having pH adjusted to 5.8), thereby preparing a medium containing the compound of the present invention at a concentration of 1 ppm.
(§2) Seeds of Nicotiana benthamiana were seeded in the 5 μL of the medium and cultured overnight at 22° C. Thereafter, 45 μL of the medium containing the compound of the present invention at a concentration of 1 ppm was added thereto, and the seeds are cultured for 7 days at 22° C., an illuminance of 4,000 lux, and a day length of 16 hours, and the nursery plants raised from the Nicotiana benthamiana were treated with the compound. Moreover, instead of the above medium, a test plot, which was obtained by performing the same treatment by using a medium prepared by adding DMSO to the Murashige•Scoog medium of ½-fold concentration at a volume ratio of 1/1,000, was used as a control plot not treated with the compound.
(§3) The nursery plants of the Nicotiana benthamiana treated with the compound were subjected to low-temperature treatment by being cultivated for 7 days at 1.5±1.0° C., an illuminance of 2,000 lux, and a day length of 16 hours.
The nursery plants of the Nicotiana benthamiana having undergone the low-temperature stress treatment were cultured for 3 days at 22° C., an illuminance of 4,000 lux, and a day length of 16 hours. Thereafter, the area of green leaf was quantified by Scanalyzer HTS (manufactured by LemnaTec GmbH). Moreover, the value of the control plot not treated with the compound that had not yet been subjected to the low-temperature stress treatment was measured in the same manner. A value of a relative leaf area was calculated based on the following equation (1), and if the value of a relative leaf area was 5 or greater, the compound was evaluated to have a mitigating effect. As a result of the evaluation, it was confirmed that when the plant was treated with one of the compounds 2, 4, 5, 6, 11, 12, 17, 20, 21, 28, 30, 34, 36, 37, 51, 52, 53, 55, 56, 58, 59, 60, 64, 65, 66, 68, 69, 70, 74, 77, 82, 83, 84, 86 and 87 of the present invention at 1 ppm, the value of a relative leaf area was 5 or greater, compared to the area of green leaf of the control plot not treated with compound. Accordingly, it was confirmed that the treatment using the compound of the present invention brings about a growth promotion effect.
(§4) Relative leaf area=100*(a green area of a plot treated with the compound of the present invention−a green area of a control plot not treated with the compound of the present invention)/(a green area of a control plot not treated with the compound of the present invention that has not yet been subjected to low-temperature stress treatment−a green area of a control plot not treated with the compound of the present invention) Equation (1): […]

Nicotiana benthamiana [4] = test: Test Example 6: growth promotion under low-temperature stress by hydroponics of Nicotiana benthamiana, 0.1 ppm; settings: 0.1 ppm in medium, low-temperature stress 7 days at 1.5±1.0° C., green leaf area 3 days later, equation (1)
Method: as §1
A DMSO solution, which contained one of the compounds 3, 7, 14, 16, 36, 39, 43, 45, 50, 52, 53, 54, 56, 57, 62, 63, 64, 65, 68, 69, 70, 71, 73, 74, 76, 77, 79, 80, 81, 84, 85, 86 and 87 of the present invention at a concentration of 100 ppm, was prepared. The DMSO solution of the compound of the present invention was added at a volume ratio of 1/1,000 to the Murashige•Scoog medium of a ½-fold concentration for the Murashige•Scoog medium (a medium containing 2.3 g of mixed salts (manufactured by Wako Pure Chemical Industries, Ltd.), 200 mg of Myo-inositol (manufactured by Sigma-Aldrich Co. LLC.), 2 mg of nicotinic acid (manufactured by Wako Pure Chemical Industries, Ltd.), 2 mg of pyridoxine hydrochloride (manufactured by Wako Pure Chemical Industries, Ltd.), 20 mg of thiamine hydrochloride (manufactured by Wako Pure Chemical Industries, Ltd.), 20 g of sucrose (manufactured by Wako Pure Chemical Industries, Ltd.), and 1 g of MES (manufactured by DOJINDO LABORATORIES) per 1 L of water and having pH adjusted to 5.8), thereby preparing a medium containing the compound of the present invention at a concentration of 0.1 ppm.
as §2, with “concentration of 0.1 ppm was” for “concentration of 1 ppm was”, “seeds are cultivated for 7” for “seeds are cultured for 7”, “the above medium a test” for “the above medium, a test”
as §3
The nursery plants of the Nicotiana benthamiana having undergone the low-temperature stress treatment were cultivated for 3 days at 22° C., an illuminance of 4,000 lux, and a day length of 16 hours. Thereafter, the area of green leaf was quantified by Scanalyzer HTS (manufactured by LemnaTec GmbH). Moreover, the value of the control plot not treated with the compound that had not yet been subjected to the low-temperature stress treatment was measured in the same manner. A value of a relative leaf area was calculated based on the following equation (1), and if the value of a relative leaf area was 5 or greater, the compound was evaluated to have a mitigating effect. As a result of the evaluation, it was confirmed that when the plant was treated with one of the compounds 3, 7, 14, 16, 36, 39, 43, 45, 50, 52, 53, 54, 56, 57, 62, 63, 64, 65, 68, 69, 70, 71, 73, 74, 76, 77, 79, 80, 81, 84, 85, 86 and 87 of the present invention at 0.1 ppm, the value of a relative leaf area was 5 or greater, compared to the area of green leaf of the control plot not treated with compound. Accordingly, it was confirmed that the treatment using the compound of the present invention brings about a growth promotion effect.
as §4, with “treatment−green” for “treatment−a green”

CCOC(=O)c1cc2cc(C(F)(F)F)ccc2[nH]1 [Compound 9]
Relative value of length of seminal root (%-untreated control plot) [1]: >5%
Relative value of score (%- untreated control plot) ([2]; concentration tested 3 ppm): >5%

COC(=O)c1nc2c(F)cc(F)cc2s1 [Compound 87]
relative leaf area (% of untreated control) at 1 ppm (Nicotiana benthamiana [3]): ≥ 5%
relative leaf area (% of untreated control) at 0.1 ppm (Nicotiana benthamiana [4]): ≥ 5%

O=C(O)c1nc2ccccc2s1 [Compound 32]
Relative value of length of seminal root (%-untreated control plot) [1]: >5%
Relative value of score (%- untreated control plot) ([2]; concentration tested 0.3 ppm): >5%

CCOC(=O)c1oc2ccccc2c1C(F)(F)F [Compound 84]
change in vivo at 10 ppm ([1]; Oryza sativa, read-out: Relative value of length of seminal root (%-untreated control plot)): > 5%
relative leaf area (% of untreated control) at 1 ppm (Nicotiana benthamiana [3]): ≥ 5%
relative leaf area (% of untreated control) at 0.1 ppm (Nicotiana benthamiana [4]): ≥ 5%

CCOC(=O)c1nc2ccccc2s1 [Compound 31]
Relative value of score (%- untreated control plot) ([2]; concentration tested 0.3 ppm): >5%

COC(=O)c1nc2ccccc2n1C [Compound 23]
Relative value of length of seminal root (%-untreated control plot) [1]: >5%
Relative value of score (%- untreated control plot) ([2]; concentration tested 10 ppm): >5%

COC(=O)c1nc2cc(C(F)(F)F)ccc2n1C [Compound 24, methyl 1-methyl-5-trifluoromethylbenzimidazole-2-carboxylate]
change in vivo at 10 ppm ([2]; Zea mays, 120 h, concentration tested 10 ppm, read-out: Relative value of score (%- untreated control plot)): > 5%
